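Growth conditions: 96-well plates. Treatment: test compound, 48 hours, 5 concentrations. Analysis: linear interpolation between bracketing concentrations; unreached endpoints set to highest concentration. GI50 is the concentration that inhibits growth by half. The concentration for full growth arrest is given as TGI.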
Key:
Experiment in all cases: NCI-60 cell line screen, 48 h
786-0 renal = tested on: 786-0 renal
A498 renal = tested on: A498 renal
A549 NSCLC = tested on: A549 NSCLC
ACHN renal = tested on: ACHN renal
BT-549 breast = tested on: BT-549 breast
CCRF-CEM leukemia = tested on: CCRF-CEM leukemia
COLO 205 colon = tested on: COLO 205 colon
DU-145 prostate = tested on: DU-145 prostate
HCC-2998 colon = tested on: HCC-2998 colon
HCT-116 colon = tested on: HCT-116 colon
HCT-15 colon = tested on: HCT-15 colon
HL-60(TB) leukemia = tested on: HL-60(TB) leukemia
HOP-62 NSCLC = tested on: HOP-62 NSCLC
HOP-92 NSCLC = tested on: HOP-92 NSCLC
HS 578T breast = tested on: HS 578T breast
IGROV1 ovarian = tested on: IGROV1 ovarian
KM12 colon = tested on: KM12 colon
LOX IMVI melanoma = tested on: LOX IMVI melanoma
M14 melanoma = tested on: M14 melanoma
MCF7 breast = tested on: MCF7 breast
MDA-MB-231 breast = tested on: MDA-MB-231 breast
MDA-MB-435 = tested on: MDA-MB-435
MOLT-4 leukemia = tested on: MOLT-4 leukemia
NCI-H226 lung = tested on: NCI-H226 lung
NCI-H23 lung = tested on: NCI-H23 lung
NCI-H460 lung = tested on: NCI-H460 lung
NCI-H522 lung = tested on: NCI-H522 lung
NCI/ADR-RES ovarian = tested on: NCI/ADR-RES ovarian
OVCAR-3 ovarian = tested on: OVCAR-3 ovarian
OVCAR-4 ovarian = tested on: OVCAR-4 ovarian
OVCAR-5 ovarian = tested on: OVCAR-5 ovarian
OVCAR-8 ovarian = tested on: OVCAR-8 ovarian
PC-3 prostate = tested on: PC-3 prostate
RPMI-8226 leukemia = tested on: RPMI-8226 leukemia
RXF 393 renal = tested on: RXF 393 renal
SF-268 CNS = tested on: SF-268 CNS
SF-295 CNS = tested on: SF-295 CNS
SF-539 CNS = tested on: SF-539 CNS
SK-MEL-2 melanoma = tested on: SK-MEL-2 melanoma
SK-MEL-28 melanoma = tested on: SK-MEL-28 melanoma
SK-MEL-5 melanoma = tested on: SK-MEL-5 melanoma
SK-OV-3 ovarian = tested on: SK-OV-3 ovarian
SN12C renal = tested on: SN12C renal
SNB-19 CNS = tested on: SNB-19 CNS
SNB-75 CNS = tested on: SNB-75 CNS
SR leukemia = tested on: SR leukemia
SW-620 colon = tested on: SW-620 colon
T-47D breast = tested on: T-47D breast
TK-10 renal = tested on: TK-10 renal
U251 CNS = tested on: U251 CNS
UACC-257 melanoma = tested on: UACC-257 melanoma
UACC-62 melanoma = tested on: UACC-62 melanoma
UO-31 renal = tested on: UO-31 renal

Structure (SMILES): COc1cc(C2C=C(C)N=C3SC=C(C)N32)cc(OC)c1OC (stereo unspecified)
- GI50 (786-0 renal): 827 nM
- TGI (786-0 renal): 2670 nM
- GI50 (A498 renal): 2390 nM
- TGI (A498 renal): 5640 nM
- GI50 (A549 NSCLC): 2100 nM
- TGI (A549 NSCLC): 6560 nM
- GI50 (ACHN renal): 618 nM
- TGI (ACHN renal): 3610 nM
- GI50 (BT-549 breast): 531 nM
- TGI (BT-549 breast): 2090 nM
- GI50 (CCRF-CEM leukemia): 312 nM
- TGI (CCRF-CEM leukemia): > 100000 nM
- GI50 (COLO 205 colon): 1320 nM
- TGI (COLO 205 colon): 3040 nM
- GI50 (DU-145 prostate): 1810 nM
- TGI (DU-145 prostate): > 100000 nM
- GI50 (HCC-2998 colon): 1940 nM
- TGI (HCC-2998 colon): 3540 nM
- GI50 (HCT-116 colon): 171 nM
- TGI (HCT-116 colon): 336 nM
- GI50 (HCT-15 colon): 246 nM
- TGI (HCT-15 colon): 822 nM
- GI50 (HL-60(TB) leukemia): 760 nM
- TGI (HL-60(TB) leukemia): 7090 nM
- GI50 (HOP-62 NSCLC): 2080 nM
- TGI (HOP-62 NSCLC): 4530 nM
- GI50 (HOP-92 NSCLC): 2080 nM
- TGI (HOP-92 NSCLC): 5950 nM
- GI50 (HS 578T breast): 2950 nM
- TGI (HS 578T breast): 74200 nM
- GI50 (IGROV1 ovarian): 2220 nM
- TGI (IGROV1 ovarian): 7300 nM
- GI50 (KM12 colon): 1330 nM
- TGI (KM12 colon): 4550 nM
- GI50 (LOX IMVI melanoma): 379 nM
- TGI (LOX IMVI melanoma): 1730 nM
- GI50 (M14 melanoma): 1130 nM
- TGI (M14 melanoma): 2890 nM
- GI50 (MCF7 breast): 333 nM
- TGI (MCF7 breast): 11900 nM
- GI50 (MDA-MB-231 breast): 1500 nM
- TGI (MDA-MB-231 breast): 9260 nM
- GI50 (MDA-MB-435): 631 nM
- TGI (MDA-MB-435): 6450 nM
- GI50 (MOLT-4 leukemia): 445 nM
- TGI (MOLT-4 leukemia): > 100000 nM
- GI50 (NCI-H226 lung): 1880 nM
- TGI (NCI-H226 lung): 5810 nM
- GI50 (NCI-H23 lung): 1770 nM
- TGI (NCI-H23 lung): 5410 nM
- GI50 (NCI-H460 lung): 2110 nM
- TGI (NCI-H460 lung): 7330 nM
- GI50 (NCI-H522 lung): 530 nM
- TGI (NCI-H522 lung): 1810 nM
- GI50 (NCI/ADR-RES ovarian): 454 nM
- TGI (NCI/ADR-RES ovarian): > 100000 nM
- GI50 (OVCAR-3 ovarian): 781 nM
- TGI (OVCAR-3 ovarian): 7660 nM
- GI50 (OVCAR-4 ovarian): 3990 nM
- TGI (OVCAR-4 ovarian): > 100000 nM
- GI50 (OVCAR-5 ovarian): 1550 nM
- TGI (OVCAR-5 ovarian): 3830 nM
- GI50 (OVCAR-8 ovarian): 342 nM
- TGI (OVCAR-8 ovarian): 10100 nM
- GI50 (PC-3 prostate): 1560 nM
- TGI (PC-3 prostate): 5880 nM
- GI50 (RPMI-8226 leukemia): 385 nM
- TGI (RPMI-8226 leukemia): 2570 nM
- GI50 (RXF 393 renal): 1490 nM
- TGI (RXF 393 renal): 3140 nM
- GI50 (SF-268 CNS): 1400 nM
- TGI (SF-268 CNS): 11400 nM
- GI50 (SF-295 CNS): 2070 nM
- TGI (SF-295 CNS): 6190 nM
- GI50 (SF-539 CNS): 353 nM
- TGI (SF-539 CNS): 4600 nM
- GI50 (SK-MEL-2 melanoma): 2040 nM
- TGI (SK-MEL-2 melanoma): 4940 nM
- GI50 (SK-MEL-28 melanoma): 507 nM
- TGI (SK-MEL-28 melanoma): 2010 nM
- GI50 (SK-MEL-5 melanoma): 1000 nM
- TGI (SK-MEL-5 melanoma): 2210 nM
- GI50 (SK-OV-3 ovarian): 2910 nM
- TGI (SK-OV-3 ovarian): 8540 nM
- GI50 (SN12C renal): 2230 nM
- TGI (SN12C renal): 7530 nM
- GI50 (SNB-19 CNS): 2320 nM
- TGI (SNB-19 CNS): 15800 nM
- GI50 (SNB-75 CNS): 4300 nM
- TGI (SNB-75 CNS): 20100 nM
- GI50 (SR leukemia): 249 nM
- TGI (SR leukemia): > 100000 nM
- GI50 (SW-620 colon): 516 nM
- TGI (SW-620 colon): 9430 nM
- GI50 (T-47D breast): 1910 nM
- TGI (T-47D breast): 7270 nM
- GI50 (TK-10 renal): 2220 nM
- TGI (TK-10 renal): 5610 nM
- GI50 (U251 CNS): 671 nM
- TGI (U251 CNS): 2790 nM
- GI50 (UACC-257 melanoma): 1770 nM
- TGI (UACC-257 melanoma): 4890 nM
- GI50 (UACC-62 melanoma): 473 nM
- TGI (UACC-62 melanoma): 1870 nM
- GI50 (UO-31 renal): 1130 nM
- TGI (UO-31 renal): 2470 nM
